Data published in patent US20260139254A1, “INTERFERING RNA FOR INHIBITING TOP1 GENE EXPRESSION AND USE THEREOF” (JENKEM TECHNOLOGY CO., LTD. (BEIJING), priority 2022, published 2026).

How the values were obtained:
[1] = test system: TOP1 mRNA; assay: Dose-dependence of siTOP1-1604 on TOP1 mRNA in PC-3 cells (qPCR); type: cell-based, human; conditions: for Relative expression level of TOP1, mean value: 24 h, siNC = 100.00
Method: A transfection system was prepared as follows on the day of transfection: siTOP1-1604 was diluted with an appropriate amount of Opti-MEM culture medium; Lipofectamine™ RNAiMAX (Lipo) transfection reagent was diluted with another appropriate amount of Opti-MEM culture medium and left to stand at room temperature for 5 min; and the two dilutions were uniformly mixed, left to stand at room temperature for 5 min, and then added to 24-well cell culture plates at 50 μL/well. PC-3 human prostate cancer cells were added to one of the 24-well cell culture plates at 4×10^5 cells/well, the culture medium being 450 μL of F12K containing 10% FBS; HCT116 human colon cancer cells were added to the other of the 24-well cell culture plates at 3.5×10^5 cells/well, the culture medium being 450 μL of IMDM containing 10% FBS. The cells were uniformly mixed with the siRNA. The final transfection volume was 500 μL, and the working concentrations of the siRNA were 10, 1.67, 0.27, 0.046, 0.0077, 0.0013, and 0.00021 nM. The control groups were Blank (Opti-MEM at the equal volume), Lipofectamine™ RNAiMAX (Lipo) transfection reagent, as well as 10 nM of siNC.
After 24 h of transfection, the cells were collected. The total cellular RNA was extracted according to the method in Example 2, and the level of TOP1 mRNA was detected. […] Nonlinear fitting was performed on the qPCR results using Graphpad software and IC50 of siTOP1 was calculated.

[2] = test system: TOP1 mRNA; assay: Inhibitory effects of modified sequences of siTOP1-1604 on TOP1 mRNA in PC-3 cells; type: cell-based, human; conditions: PC-3, siRNA 50 nM, 48 h after transfection, Blank = 100.00
Method: PC-3 human prostate cancer cells were transfected with the modified siTOP1 according to the method in Example 2 at a siRNA working concentration of 50 nM. TOP1 mRNA levels were detected 48 h after the transfection. The control groups were Blank (Opti-MEM at the equal volume), Lipofectamine™ RNAiMAX (Lipo) transfection reagent, and the positive control unmodified siTOP-1604.

siTOP1-1604: siRNA targeting TOP1; target SEQ ID NO: 9, sense strand SEQ ID NO: 24, antisense strand SEQ ID NO: 39 (sense GUGUGGACAAGAUCCGGAAUU; antisense UUCCGGAUCUUGUCCACACUU; described as unmodified parent siRNA, further chemistry not given here)
Relative expression level of TOP1, mean value ([1]; PC-3, 0.00021 nM): 125.48
Relative expression level of TOP1, mean value ([1]; PC-3, 0.0013 nM): 96.21
Relative expression level of TOP1, mean value ([1]; PC-3, 0.0077 nM): 122.71
Relative expression level of TOP1, mean value ([1]; PC-3, 0.046 nM): 47.64
Relative expression level of TOP1, mean value ([1]; PC-3, 0.27 nM): 24.94
Relative expression level of TOP1, mean value ([1]; PC-3, 1.67 nM): 21.05
Relative expression level of TOP1, mean value ([1]; PC-3, 10 nM): 19.66
IC50 ([1]; PC-3, 24 h, relative to siNC, nonlinear fit of qPCR results): 0.075 nM
Relative expression level, mean value [2]: 4.03
